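Grown in 96-well plates, cells were treated for 48 hours with each compound at five concentrations. Insufficient inhibition: endpoint recorded as highest concentration tested. GI50 is the concentration that inhibits growth by half. The concentration for full growth arrest is given as TGI.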
Columns and labels:
Experiment in all cases: NCI tumour cell line growth inhibition, 48 h
SF-539 CNS = system: SF-539 CNS
IGROV1 ovarian = system: IGROV1 ovarian
HL-60(TB) leukemia = system: HL-60(TB) leukemia
EKVX NSCLC = system: EKVX NSCLC
NCI-H460 lung = system: NCI-H460 lung
HT29 colon = system: HT29 colon
NCI-H226 lung = system: NCI-H226 lung
MDA-MB-231 breast = system: MDA-MB-231 breast
SN12C renal = system: SN12C renal
A498 renal = system: A498 renal
ACHN renal = system: ACHN renal
SK-MEL-28 melanoma = system: SK-MEL-28 melanoma
SF-268 CNS = system: SF-268 CNS
SK-MEL-5 melanoma = system: SK-MEL-5 melanoma
SNB-19 CNS = system: SNB-19 CNS
DU-145 prostate = system: DU-145 prostate
SR leukemia = system: SR leukemia
CAKI-1 renal = system: CAKI-1 renal
NCI/ADR-RES ovarian = system: NCI/ADR-RES ovarian
SW-620 colon = system: SW-620 colon
MDA-MB-435 = system: MDA-MB-435
T-47D breast = system: T-47D breast
OVCAR-8 ovarian = system: OVCAR-8 ovarian
NCI-H23 lung = system: NCI-H23 lung
U251 CNS = system: U251 CNS
OVCAR-5 ovarian = system: OVCAR-5 ovarian
UACC-62 melanoma = system: UACC-62 melanoma
RXF 393 renal = system: RXF 393 renal
SK-OV-3 ovarian = system: SK-OV-3 ovarian
SNB-75 CNS = system: SNB-75 CNS
OVCAR-4 ovarian = system: OVCAR-4 ovarian
UO-31 renal = system: UO-31 renal
M14 melanoma = system: M14 melanoma
MOLT-4 leukemia = system: MOLT-4 leukemia
COLO 205 colon = system: COLO 205 colon
SF-295 CNS = system: SF-295 CNS
CCRF-CEM leukemia = system: CCRF-CEM leukemia
HS 578T breast = system: HS 578T breast
A549 NSCLC = system: A549 NSCLC
BT-549 breast = system: BT-549 breast
MDA-MB-468 breast = system: MDA-MB-468 breast
HOP-92 NSCLC = system: HOP-92 NSCLC
HCT-116 colon = system: HCT-116 colon
HCC-2998 colon = system: HCC-2998 colon
HOP-62 NSCLC = system: HOP-62 NSCLC
KM12 colon = system: KM12 colon
LOX IMVI melanoma = system: LOX IMVI melanoma
SK-MEL-2 melanoma = system: SK-MEL-2 melanoma
RPMI-8226 leukemia = system: RPMI-8226 leukemia
HCT-15 colon = system: HCT-15 colon
MALME-3M melanoma = system: MALME-3M melanoma
NCI-H522 lung = system: NCI-H522 lung
OVCAR-3 ovarian = system: OVCAR-3 ovarian
MCF7 breast = system: MCF7 breast
TK-10 renal = system: TK-10 renal
K-562 leukemia = system: K-562 leukemia
PC-3 prostate = system: PC-3 prostate
UACC-257 melanoma = system: UACC-257 melanoma
786-0 renal = system: 786-0 renal

O=C(COc1ccc(NC(=O)Nc2ccc(Cl)cc2)cc1)N=Nc1c(O)[nH]c2ccc([N+](=O)[O-])cc12
GI50 (SF-539 CNS): 3.36 µM
TGI (SF-539 CNS): 15.3 µM
GI50 (IGROV1 ovarian): 13.6 µM
TGI (IGROV1 ovarian): 30.7 µM
GI50 (HL-60(TB) leukemia): > 100 µM
TGI (HL-60(TB) leukemia): > 100 µM
GI50 (EKVX NSCLC): 22.3 µM
TGI (EKVX NSCLC): > 100 µM
GI50 (NCI-H460 lung): 3.07 µM
TGI (NCI-H460 lung): 33.9 µM
GI50 (HT29 colon): 6.81 µM
TGI (HT29 colon): > 100 µM
GI50 (NCI-H226 lung): 4.12 µM
TGI (NCI-H226 lung): 24.2 µM
GI50 (MDA-MB-231 breast): 2.84 µM
TGI (MDA-MB-231 breast): 9.44 µM
GI50 (SN12C renal): 4.74 µM
TGI (SN12C renal): 23.9 µM
GI50 (A498 renal): 21.1 µM
TGI (A498 renal): 43.2 µM
GI50 (ACHN renal): 26.8 µM
TGI (ACHN renal): > 100 µM
GI50 (SK-MEL-28 melanoma): 2.49 µM
TGI (SK-MEL-28 melanoma): 7.97 µM
GI50 (SF-268 CNS): 4.81 µM
TGI (SF-268 CNS): 18.7 µM
GI50 (SK-MEL-5 melanoma): 12.4 µM
TGI (SK-MEL-5 melanoma): > 100 µM
GI50 (SNB-19 CNS): 10.1 µM
TGI (SNB-19 CNS): 23.6 µM
GI50 (DU-145 prostate): 10.3 µM
TGI (DU-145 prostate): > 100 µM
GI50 (SR leukemia): 18 µM
TGI (SR leukemia): > 100 µM
GI50 (CAKI-1 renal): 69.7 µM
TGI (CAKI-1 renal): > 100 µM
GI50 (NCI/ADR-RES ovarian): > 100 µM
TGI (NCI/ADR-RES ovarian): > 100 µM
GI50 (SW-620 colon): 3.34 µM
TGI (SW-620 colon): > 100 µM
GI50 (MDA-MB-435): 3.7 µM
TGI (MDA-MB-435): 20.5 µM
GI50 (T-47D breast): 4 µM
TGI (T-47D breast): 30.2 µM
GI50 (OVCAR-8 ovarian): 12.7 µM
TGI (OVCAR-8 ovarian): > 100 µM
GI50 (NCI-H23 lung): 5.79 µM
TGI (NCI-H23 lung): 18.3 µM
GI50 (U251 CNS): 6.42 µM
TGI (U251 CNS): 19.6 µM
GI50 (OVCAR-5 ovarian): 24 µM
TGI (OVCAR-5 ovarian): > 100 µM
GI50 (UACC-62 melanoma): 6.99 µM
TGI (UACC-62 melanoma): 26.6 µM
GI50 (RXF 393 renal): 5.69 µM
TGI (RXF 393 renal): 26.8 µM
GI50 (SK-OV-3 ovarian): 21.6 µM
TGI (SK-OV-3 ovarian): 55.8 µM
GI50 (SNB-75 CNS): 4.82 µM
TGI (SNB-75 CNS): 24.2 µM
GI50 (OVCAR-4 ovarian): 3.95 µM
TGI (OVCAR-4 ovarian): 24.8 µM
GI50 (UO-31 renal): > 100 µM
TGI (UO-31 renal): > 100 µM
GI50 (M14 melanoma): 5.83 µM
TGI (M14 melanoma): > 100 µM
GI50 (MOLT-4 leukemia): 5.25 µM
TGI (MOLT-4 leukemia): > 100 µM
GI50 (COLO 205 colon): 5.21 µM
TGI (COLO 205 colon): > 100 µM
GI50 (SF-295 CNS): 16.5 µM
TGI (SF-295 CNS): 34 µM
GI50 (CCRF-CEM leukemia): 2.56 µM
TGI (CCRF-CEM leukemia): 8.18 µM
GI50 (HS 578T breast): 2.96 µM
TGI (HS 578T breast): 15.8 µM
GI50 (A549 NSCLC): > 100 µM
TGI (A549 NSCLC): > 100 µM
GI50 (BT-549 breast): 14.2 µM
TGI (BT-549 breast): 29.8 µM
GI50 (MDA-MB-468 breast): 1.98 µM
TGI (MDA-MB-468 breast): 4.82 µM
GI50 (HOP-92 NSCLC): 3.01 µM
TGI (HOP-92 NSCLC): 12.4 µM
GI50 (HCT-116 colon): 3.65 µM
TGI (HCT-116 colon): 13.6 µM
GI50 (HCC-2998 colon): 6.18 µM
TGI (HCC-2998 colon): > 100 µM
GI50 (HOP-62 NSCLC): 14.3 µM
TGI (HOP-62 NSCLC): 30.6 µM
GI50 (KM12 colon): 1.95 µM
TGI (KM12 colon): 11 µM
GI50 (LOX IMVI melanoma): 3.21 µM
TGI (LOX IMVI melanoma): 11.5 µM
GI50 (SK-MEL-2 melanoma): 7.09 µM
TGI (SK-MEL-2 melanoma): 20.3 µM
GI50 (RPMI-8226 leukemia): 7.3 µM
TGI (RPMI-8226 leukemia): > 100 µM
GI50 (HCT-15 colon): > 100 µM
TGI (HCT-15 colon): > 100 µM
GI50 (MALME-3M melanoma): 2.6 µM
TGI (MALME-3M melanoma): 8.74 µM
GI50 (NCI-H522 lung): 2.4 µM
TGI (NCI-H522 lung): 8.03 µM
GI50 (OVCAR-3 ovarian): 2.25 µM
TGI (OVCAR-3 ovarian): 6.58 µM
GI50 (MCF7 breast): 2.06 µM
TGI (MCF7 breast): 6.36 µM
GI50 (TK-10 renal): 23.7 µM
TGI (TK-10 renal): 59.7 µM
GI50 (K-562 leukemia): 8.47 µM
TGI (K-562 leukemia): > 100 µM
GI50 (PC-3 prostate): 6.59 µM
TGI (PC-3 prostate): > 100 µM
GI50 (UACC-257 melanoma): 20.1 µM
TGI (UACC-257 melanoma): > 100 µM
GI50 (786-0 renal): 15.6 µM
TGI (786-0 renal): 34.6 µM

Reference: PubChem BioAssay (NCI)
